Reference: ChEMBL document CHEMBL1909046, “DrugMatrix in vitro pharmacology data”

Columns and labels:
[1] = target: Histamine H2 receptor (Homo sapiens, UniProt P25021); format: cell membranes, CHO-K1, Membrane; note: in other assays of this panel Not Active means under 50% inhibition at 10 µM
[2] = target: T1, Muscarinic acetylcholine receptor M4 (Homo sapiens, UniProt P08173); format: cell membranes, CHO-K1, Membrane; note: in other assays of this panel Not Active means under 50% inhibition at 10 µM
T1 sequence (P08173 whole entry): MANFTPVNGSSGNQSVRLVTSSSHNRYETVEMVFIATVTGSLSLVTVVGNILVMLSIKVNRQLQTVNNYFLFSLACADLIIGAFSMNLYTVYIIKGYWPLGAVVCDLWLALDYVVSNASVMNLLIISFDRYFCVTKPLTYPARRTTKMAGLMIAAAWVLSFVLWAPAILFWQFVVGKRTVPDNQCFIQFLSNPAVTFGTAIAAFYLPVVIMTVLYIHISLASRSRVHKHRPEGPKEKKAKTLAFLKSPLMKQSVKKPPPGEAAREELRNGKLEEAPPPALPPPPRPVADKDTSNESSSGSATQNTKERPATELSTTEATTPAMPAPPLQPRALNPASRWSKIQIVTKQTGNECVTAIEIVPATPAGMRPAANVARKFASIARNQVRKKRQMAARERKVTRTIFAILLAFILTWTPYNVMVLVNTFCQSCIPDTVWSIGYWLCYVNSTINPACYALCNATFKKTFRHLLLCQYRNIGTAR

[3] = target: Mitogen-activated protein kinase 3 (Homo sapiens, UniProt P27361); test: DRUGMATRIX: Protein Serine/Threonine Kinase, ERK1 enzyme inhibition (substrate: Myelin Basic Protein); parameters: species or system Escherichia coli; conditions: Not Active = under 50% inhibition at 10 µM
Sequence of Mitogen-activated protein kinase 3 (P27361 whole entry): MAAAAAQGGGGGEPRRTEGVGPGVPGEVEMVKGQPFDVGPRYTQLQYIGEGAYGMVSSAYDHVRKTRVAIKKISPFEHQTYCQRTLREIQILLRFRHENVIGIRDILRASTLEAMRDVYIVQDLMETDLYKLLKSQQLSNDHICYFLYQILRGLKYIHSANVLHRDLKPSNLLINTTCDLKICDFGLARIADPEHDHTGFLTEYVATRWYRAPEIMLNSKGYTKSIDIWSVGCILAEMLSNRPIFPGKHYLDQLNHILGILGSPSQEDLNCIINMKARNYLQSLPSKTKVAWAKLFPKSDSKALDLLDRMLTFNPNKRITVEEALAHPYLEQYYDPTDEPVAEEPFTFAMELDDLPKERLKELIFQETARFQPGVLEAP

[4] = target: Mu-type opioid receptor (Homo sapiens, UniProt P35372); test: DRUGMATRIX: Opiate mu (OP3, MOP) radioligand binding (ligand: [3H] Diprenorphine); format: cell membranes, CHO-K1, Membrane; conditions: Not Active = under 50% inhibition at 10 µM
Sequence of Mu-type opioid receptor (P35372 whole entry): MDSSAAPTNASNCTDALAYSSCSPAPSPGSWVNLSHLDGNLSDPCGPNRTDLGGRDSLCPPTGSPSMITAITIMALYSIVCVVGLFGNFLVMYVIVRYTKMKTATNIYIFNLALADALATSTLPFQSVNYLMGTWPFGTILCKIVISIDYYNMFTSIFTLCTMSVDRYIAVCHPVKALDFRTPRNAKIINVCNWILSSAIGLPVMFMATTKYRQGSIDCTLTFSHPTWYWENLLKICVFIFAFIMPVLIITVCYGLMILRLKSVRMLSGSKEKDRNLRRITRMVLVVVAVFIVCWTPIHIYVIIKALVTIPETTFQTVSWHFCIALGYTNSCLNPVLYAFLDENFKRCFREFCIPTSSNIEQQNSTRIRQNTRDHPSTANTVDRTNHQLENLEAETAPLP

[5] = DRUGMATRIX: Glutamate, AMPA radioligand binding (ligand: [3H] AMPA); format: cell membranes, Rattus norvegicus, Wistar, Cerebral cortex, Membrane; conditions: Not Active = under 50% inhibition at 10 µM
[6] = target: Protein kinase C alpha type (Homo sapiens, UniProt P17252); format: cell-based; conditions: sf9;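 note: inhibition of PKCalpha kinase activity measured in an enzyme assay with histone as the phosphorylation substrate; in other assays of this panel Not Active means under 50% inhibition at 10 µM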
[7] = target: Melanocortin receptor 4 (Homo sapiens, UniProt P32245); format: cell membranes, Membrane; conditions: hek293; note: in other assays of this panel Not Active means under 50% inhibition at 10 µM
Sequence of Melanocortin receptor 4 (P32245 whole entry): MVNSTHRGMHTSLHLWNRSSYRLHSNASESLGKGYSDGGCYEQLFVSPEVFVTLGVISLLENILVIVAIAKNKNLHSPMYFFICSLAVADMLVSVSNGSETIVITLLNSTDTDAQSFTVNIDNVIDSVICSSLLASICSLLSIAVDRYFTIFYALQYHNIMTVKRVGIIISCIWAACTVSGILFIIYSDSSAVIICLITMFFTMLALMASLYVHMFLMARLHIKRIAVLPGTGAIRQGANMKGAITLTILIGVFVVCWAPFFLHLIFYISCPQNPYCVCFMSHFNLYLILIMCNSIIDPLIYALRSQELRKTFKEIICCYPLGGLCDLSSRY

Sequence of Histamine H2 receptor (P25021 whole entry): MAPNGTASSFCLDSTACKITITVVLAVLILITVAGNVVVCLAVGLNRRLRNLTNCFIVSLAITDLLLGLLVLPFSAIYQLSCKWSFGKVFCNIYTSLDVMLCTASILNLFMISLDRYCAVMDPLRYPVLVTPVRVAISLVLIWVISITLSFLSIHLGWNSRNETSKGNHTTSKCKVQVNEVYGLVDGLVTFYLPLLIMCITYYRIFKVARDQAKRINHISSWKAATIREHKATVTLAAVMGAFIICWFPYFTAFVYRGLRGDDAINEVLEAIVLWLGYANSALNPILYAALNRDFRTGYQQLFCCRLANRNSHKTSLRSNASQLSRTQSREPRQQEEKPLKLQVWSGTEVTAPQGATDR

O=C(C1CCCCC1)N1CC(=O)N2CCc3ccccc3C2C1 (stereo not drawn) [PRAZIQUANTEL]
Not Active: IC50 ([1]; cho-k1) | IC50 ([2]; cho-k1) | IC50 [3] | IC50 ([4]; cho-k1) | IC50 [5] | Ki [5] | IC50 [6] | IC50 [7]

C=C1CC[C@H](O)C/C1=C/C=C1\CCC[C@]2(C)[C@@H]([C@H](C)CCCC(C)C)CC[C@@H]12 [CHOLECALCIFEROL]
Not Active: IC50 ([1]; cho-k1) | IC50 ([2]; cho-k1) | IC50 [3] | IC50 ([4]; cho-k1) | IC50 [5] | Ki [5] | IC50 [6] | IC50 [7]

CC(=O)OCC(=O)[C@@]1(O)CC[C@H]2[C@@H]3CCC4=CC(=O)CC[C@]4(C)[C@H]3C(=O)C[C@@]21C [CORTISONE ACETATE]
Not Active: IC50 ([1]; cho-k1) | IC50 ([2]; cho-k1) | IC50 [3] | IC50 ([4]; cho-k1) | IC50 [5] | Ki [5] | IC50 [6] | IC50 [7]

COc1ccc2[nH]c([S+]([O-])Cc3ncc(C)c(OC)c3C)nc2c1 (stereo not drawn) [OMEPRAZOLE]
Not Active: IC50 ([1]; cho-k1) | IC50 ([2]; cho-k1) | IC50 [3] | IC50 ([4]; cho-k1) | IC50 [5] | Ki [5] | IC50 [6] | IC50 [7]

Nc1c(CC(=O)O)cccc1C(=O)c1ccc(Br)cc1 [BROMFENAC]
Not Active: IC50 ([1]; cho-k1) | IC50 ([2]; cho-k1) | IC50 [3] | IC50 ([4]; cho-k1) | IC50 [5] | Ki [5] | IC50 [6] | IC50 [7]

C[C@H]1O[C@@H](O[C@H]2[C@@H](O)C[C@H](O[C@H]3[C@@H](O)C[C@H](O[C@H]4CC[C@@]5(C)[C@H](CC[C@@H]6[C@@H]5CC[C@]5(C)[C@@H](C7=CC(=O)OC7)CC[C@]65O)C4)O[C@@H]3C)O[C@@H]2C)C[C@H](O)[C@@H]1O [DIGITOXIN]
Not Active: IC50 ([1]; cho-k1) | IC50 ([2]; cho-k1) | IC50 [3] | IC50 ([4]; cho-k1) | IC50 [5] | Ki [5] | IC50 [6] | IC50 [7]

C[N+](C)(C)CCO.[Cl-] [CHOLINE CHLORIDE]
Not Active: IC50 ([1]; cho-k1) | IC50 ([2]; cho-k1) | IC50 [3] | IC50 ([4]; cho-k1) | IC50 [5] | Ki [5] | IC50 [6] | IC50 [7]

CN(C)c1ccc(C(=C2C=CC(=[N+](C)C)C=C2)c2ccc(N(C)C)cc2)cc1.[Cl-] [GENTIAN VIOLET]
0.871 µM: Ki ([4]; read-out: Ki)
1.14 µM: Ki ([1]; read-out: Ki)
1.16 µM: IC50 ([1]; read-out: IC50)
1.01 µM: IC50 ([2]; read-out: IC50)
Not Active: IC50 [3] | IC50 [5] | Ki [5] | IC50 [6] | IC50 [7]
2.15 µM: IC50 ([4]; read-out: IC50)
0.14 µM: Ki ([2]; read-out: Ki)

O=S(=O)([O-])CCS.[Na+] [MESNA]
Not Active: IC50 ([1]; cho-k1) | IC50 ([2]; cho-k1) | IC50 [3] | IC50 ([4]; cho-k1) | IC50 [5] | Ki [5] | IC50 [6] | IC50 [7]

O=C(O)Cc1ccccc1Nc1c(Cl)cccc1Cl [DICLOFENAC]
Not Active: IC50 ([1]; cho-k1) | IC50 ([2]; cho-k1) | IC50 [3] | IC50 ([4]; cho-k1) | IC50 [5] | Ki [5] | IC50 [6] | IC50 [7]

COc1ccccc1C(=O)N1CCC(Cc2ccccc2)CC1
Not Active: IC50 ([1]; cho-k1) | IC50 ([2]; cho-k1) | IC50 [3] | IC50 ([4]; cho-k1) | IC50 [5] | Ki [5] | IC50 [6] | IC50 [7]

CCC1=C[C@@H]2CN(C1)Cc1c([nH]c3ccccc13)[C@@](C(=O)OC)(c1cc3c(cc1OC)N(C)[C@H]1[C@@](O)(C(=O)OC)[C@H](OC(C)=O)[C@]4(CC)C=CCN5CC[C@]31[C@@H]54)C2 [VINORELBINE]
Not Active: IC50 ([1]; cho-k1) | IC50 ([2]; cho-k1) | IC50 [3] | IC50 ([4]; cho-k1) | IC50 [5] | Ki [5] | IC50 [6] | IC50 [7]

CCOC(=O)[C@H](CCc1ccccc1)N[C@H]1CCc2ccccc2N(CC(=O)O)C1=O [BENAZEPRIL]
Not Active: IC50 ([1]; cho-k1) | IC50 ([2]; cho-k1) | IC50 [3] | IC50 ([4]; cho-k1) | IC50 [5] | Ki [5] | IC50 [6] | IC50 [7]

CCOC(=O)C(C)(C)Oc1ccc(Cl)cc1 [CLOFIBRATE]
Not Active: IC50 ([1]; cho-k1) | IC50 ([2]; cho-k1) | IC50 [3] | IC50 ([4]; cho-k1) | IC50 [5] | Ki [5] | IC50 [6] | IC50 [7]

CC(=O)Nc1c(I)c(NC(C)=O)c(I)c(C(=O)O)c1I [DIATRIZOIC ACID]
Not Active: IC50 ([1]; cho-k1) | IC50 ([2]; cho-k1) | IC50 [3] | IC50 ([4]; cho-k1) | IC50 [5] | Ki [5] | IC50 [6] | IC50 [7]

CCOC(=O)C1=C(C)NC(C)=C(C(=O)OC)C1c1cccc([N+](=O)[O-])c1 (stereo not drawn) [NITRENDIPINE]
Not Active: IC50 ([1]; cho-k1) | IC50 ([2]; cho-k1) | IC50 [3] | IC50 ([4]; cho-k1) | IC50 [5] | Ki [5] | IC50 [6] | IC50 [7]

O=C1CC[C@H](N2C(=O)c3ccccc3C2=O)C(=O)N1
Not Active: IC50 ([1]; cho-k1) | IC50 ([2]; cho-k1) | IC50 [3] | IC50 ([4]; cho-k1) | IC50 [5] | Ki [5] | IC50 [6] | IC50 [7]

C/C=C/C[C@@H](C)[C@@H](O)[C@H]1C(=O)N[C@@H](CC)C(=O)N(C)CC(=O)N(C)[C@@H](CC(C)C)C(=O)N[C@@H](C(C)C)C(=O)N(C)[C@@H](CC(C)C)C(=O)N[C@@H](C)C(=O)N[C@H](C)C(=O)N(C)[C@@H](CC(C)C)C(=O)N(C)[C@@H](CC(C)C)C(=O)N(C)[C@@H](C(C)C)C(=O)N1C [CYCLOSPORINE]
Not Active: IC50 ([1]; cho-k1) | IC50 ([2]; cho-k1) | IC50 [3] | IC50 ([4]; cho-k1) | IC50 [5] | Ki [5] | IC50 [6] | IC50 [7]

CC(C)Cc1ccc(C(C)C(=O)O)cc1 (stereo not drawn) [IBUPROFEN]
Not Active: IC50 ([1]; cho-k1) | IC50 ([2]; cho-k1) | IC50 [3] | IC50 ([4]; cho-k1) | IC50 [5] | Ki [5] | IC50 [6] | IC50 [7]

CCCCN1CCCCC1C(=O)Nc1c(C)cccc1C.Cl (stereo not drawn) [BUPIVACAINE HYDROCHLORIDE]
Not Active: IC50 ([1]; cho-k1) | IC50 ([2]; cho-k1) | IC50 [3] | IC50 ([4]; cho-k1) | IC50 [5] | Ki [5] | IC50 [6] | IC50 [7]
